# Measured values as given in patent publication US20260224716A1, “PTH ANALOGS FOR THE TREATMENT OF HYPOPARATHYROIDISM” (priority 2020, published 2026).
# Where a SMILES comes first, the peptide text is derived from it. [ ]: non-standard residue; d: D form. The star is where a group is joined. NMeH = CN[C@@H](Cc1c[nH]cn1)C(=O)O; Isobutyryl(2-OH) = CC(C)(O)C(=O)*; Deg = CCC(N)(CC)C(=O)O; Aib = CC(C)(N)C(=O)O
# Tested on: not listed separately
# Assay: Rate of model dipeptide cleavage from hexapeptide in PBS (HPLC, LC-MS)
# Format: physicochemical
# Conditions: buffer
# Protocol: The solution was incubated at 37° C.
# The flow rate was 1 ml/min.
row,Molecule,half-life at 1 mg/ml
1,C[C@@H](O)[C@H](NC(=O)CNC(=O)[C@H](CCCNC(=N)N)NC(=O)[C@H](CO)NC(=O)[C@H](Cc1c[nH]cn1)NC(=O)[C@@H]1CCCN1C(=O)C(C)(C)N)C(=O)N[C@@H](Cc1ccccc1)C(N)=O [compound 14] (H-[Aib]PHSRGTF-NH2),1920 min
2,CCC(N)(CC)C(=O)N1CCC[C@H]1C(=O)N[C@@H](Cc1c[nH]cn1)C(=O)N[C@@H](CO)C(=O)N[C@@H](CCCNC(=N)N)C(=O)NCC(=O)N[C@H](C(=O)N[C@@H](Cc1ccccc1)C(N)=O)[C@@H](C)O [compound 20] (H-[Deg]PHSRGTF-NH2),2760 min
3,C[C@H](NC(=O)[C@@H]1CCCN1C(=O)C(C)(C)N)C(=O)N[C@@H](CO)C(=O)N[C@@H](CCCNC(=N)N)C(=O)NCC(=O)N[C@H](C(=O)N[C@@H](Cc1ccccc1)C(N)=O)[C@@H](C)O [compound 22] (H-[Aib]PASRGTF-NH2),3480 min
4,C[C@@H](O)[C@H](NC(=O)CNC(=O)[C@H](CCCNC(=N)N)NC(=O)[C@H](CO)NC(=O)[C@H](Cc1c[nH]cn1)N(C)C(=O)[C@@H]1CCCN1C(=O)C(C)(C)N)C(=O)N[C@@H](Cc1ccccc1)C(N)=O [compound 23] (H-[Aib]P[NMeH]SRGTF-NH2),1800 min

# The remaining lines, values ahead:
row,half-life at 1 mg/ml,Molecule
1,1200 min,C[C@@H](O)[C@H](NC(=O)CNC(=O)[C@H](CCCNC(=N)N)NC(=O)[C@H](CO)NC(=O)[C@H](Cc1c[nH]cn1)NC(=O)[C@H]1CCCN1C(=O)C(C)(C)N)C(=O)N[C@@H](Cc1ccccc1)C(N)=O [compound 15] (H-[Aib][dP]HSRGTF-NH2)
2,960 min,C[C@@H](O)[C@H](NC(=O)CNC(=O)[C@H](CCCNC(=N)N)NC(=O)[C@H](CO)NC(=O)[C@@H](Cc1c[nH]cn1)NC(=O)[C@@H]1CCCN1C(=O)C(C)(C)N)C(=O)N[C@@H](Cc1ccccc1)C(N)=O [compound 16] (H-[Aib]P[dH]SRGTF-NH2)
3,3660 min,C[C@@H](O)[C@H](NC(=O)CNC(=O)[C@H](CCCNC(=N)N)NC(=O)[C@H](CO)NC(=O)[C@H](Cc1c[nH]cn1)NC(=O)[C@@H]1CCCN1C(=O)C(C)(C)O)C(=O)N[C@@H](Cc1ccccc1)C(N)=O [compound 21] ({Isobutyryl(2-OH)}-PHSRGTF-NH2)

# Same assay, conditions: cleavage of dipeptide A-B from model hexapeptide in PBS, 37° C.; unit not given or result in words
row,Molecule,t1/2
1,13 (XXSVSEIQLMHNLGKHLNSMERVEWLRKKLQDVHNFX; SITE 1 MISC_FEATURE - Xaa at position 1 is acylated dLys; SITE 2 MISC_FEATURE - Xaa at position 2 is N-methyl Gly; SITE 37 MISC_FEATURE - Xaa at position 37 is an acylated Lys; SITE 37 MISC_FEATURE - C-terminal carboxyl group replaced with an amide; listed as Homo sapiens) [compound 13],No cleavage

# Tested on: serum calcium
# Assay: Pharmacology in normal mice: serum calcium (Example 6)
# Format: in vivo, C57Bl6/J mice
# Conditions: FIG. 5C, 20 or 40 nmol/kg SC, 24 and 48 hours
# Protocol: Each group of mice was bled immediately before the injection and after 24 and 48 hours. Blood was centrifuges and serum was collected and stored at −20 C. Calcium concentrations were determined used commercially available assays following the manufacturer's instructions.
row,Molecule,effect on serum calcium levels
1,SVSEIQLMHNLGKHLNSMERVEWLRKKLQDVHK(γE-COC16H32CO2H)-OH [SEQ ID NO: 74],increase serum calcium levels
